From US20220031690A1, “ANTI-NEURODEGENERATIVE DISEASE AGENT” (Hayashibara Co., Ltd., priority 2018, published 2022)

Legend:
PC12-HS cells [1] = assay: Evaluation method B: neurite-outgrowth promoting activity in the presence of NGF; type: cell-based, rat; details: for Neurite-outgrowth rate (%) / Action on PC12-HS neurite-outgrowth promotion (500 ng/ml): NGF 10 ng/ml; for Action on PC12-HS neurite-outgrowth promotion (500 ng/ml): 3 days, class of neurite-outgrowth rate; for neurite-outgrowth promoting activity (in words): 200 and 1,000 nM, comment on Table 2
Excerpt: As a model of the nerve cell, the NGF (nerve growth factor) highly sensitive strain of PC12 cell derived from the rat adrenal pheochromocytoma (hereinafter referred to as “PC12-HS cell”; JCRB cell bank, National Research and Development Institute of Health and Nutrition), which has been widely used as a suitable model for research on human neurodegenerative disease, was used. As the test compound, […] of trimethine cyanine dye compounds; NK-5 (Chemical formula 2), NK-36 (Chemical formula 3), NK-44 (Chemical formula 5) and dye compounds represented by Chemical formulae 12 to 18, and NK-6 (Chemical formula 7), which is a monomethine cyanine dye, were selected. In addition, two kinds of ethylene cross-linked dyes (Chemical formulae 19 and 20), 15 kinds of monomethine cyanine dyes (Chemical formulae 21 to 35), and seven kinds of trimethine cyanine dyes (Chemical formulae 36 to 42), which were expected to have a good neurocyte growth acceleration activity and/or neurite-outgrowth promoting activity in the screening disclosed in Patent literature 6, were also re-evaluated for comparison. The Chemical formulae 12 to 42 are shown below.
The cyanine dye compounds subjected to the test (purity 97% by mass or more, synthesized by Hayashibara Co., Ltd., Okayama, Japan) were individually dissolved in DMSO (product number “D8418”, commercialized by SIGMA Corporation) at a concentration of 5 mg/ml, and the solutions were then filtered through DMSO-resistant membrane (“Millex-LGS LLG025SS”, commercialized by Millipore Corporation) and stored at 25° C. in a dark condition. At the time of use, they were further diluted with Dulbecco's Medium (hereinafter, abbreviated as “D-MEM medium”, commercialized by Nissui Pharmaceutical Co., Ltd.) supplemented by 10% by volume of fetal bovine serum (FBS), and subjected to the test.
As in the case of evaluation of neurocyte growth accelerating activity (Evaluation method A), 50 μl/well of each test compound solution, prepared by diluting with the culture medium to give a final concentration of 500 ng/ml, and the culture medium containing 20 ng/ml of mouse NGF (mouse derived, final concentration 10 ng/ml, commercialized by Chemicon International, Inc., CA, USA) (50 μl/well) were added to the precultured PC12-HS cells in each well, and then cultured for three days. Culture medium was removed on day 3 of culture, and cells were fixed by adding 100 μl/well of 10% by volume of glutaraldehyde and standing for 20 minutes at room temperature. As a negative control, PC12-HS cells, cultured for three days with culture medium, were fixed with glutaraldehyde similarly as above. Fixed cells were observed under a microscope to assess the neurite-outgrowth. The neurite-outgrowth rate (%) was determined by observing the cells using a microscope by adjusting the magnitude to give about 100 cells in one visual field, counting the number of cells having neurites twice or more in length of the cell body (major axis), dividing by the total number of cells in the same visual field, and multiplying by 100. Measurements were carried out at three points for each test compound. […] In this experiment, the neurite-outgrowth rate was 5% or less when NGF was added (final concentration 10 ng/ml) without the addition of the test compound.
The method was based on Experiment 1-1, except the concentrations of the test compounds were set to three doses of 40 nM, 200 nM and 1,000 nM for evaluation method A (neurocyte growth accelerating effect), and two doses of 200 nM and 1,000 nM for evaluation method B (neurite outgrowth promoting effect). Measurements were performed in triplicate for each concentration of each test compound in both evaluation methods A and B. The result of the evaluation method A was expressed as a cell proliferation rate (%) by determined a relative percentage (%) when the value of the negative control to which the test compound was not added, was regarded as 100%. […]

PC12-HS cells [2] = assay: Intracellular ROS production after hydrogen peroxide stimulation (CM-H2DCFDA); type: cell-based, rat; details: for intercellular ROS production (%): 50 μM hydrogen peroxide only = 100%; for inhibitory effect on intercellular ROS production (in words): 125 to 1,000 nM
Excerpt: From the above-mentioned Experiment 1-1 and Experiment 1-2, it was shown that NK-5 (Chemical formula 2), NK-5 analogs (Chemical formula 3 and Chemical formula 5) and NK-6 (Chemical formula 7) have strong neurocyte growth acceleration activity and neurite-outgrowth promoting activity, and therefore, it was verified by the following experiment whether these compounds also act effectively on oxidative damage to neurocyte. That is, PC12-HS cells were oxidatively stimulated with hydrogen peroxide, and the intracellular ROS generated at that time was quantified using a fluorescent reagent, and the inhibitory effect of the dye compounds on intercellular ROS production, when an external oxidative stress was applied, was evaluated.
Similar to Experiment 1-1 and Experiment 1-2, precultured PC12-HS cells were cultured for 24 hours with test compounds diluted in culture medium at final concentrations of 125, 250, 500 and 1000 nM. Thereafter, the culture supernatant was removed, the cells were washed with Hank's buffer (60 μM CaCl2), 400 μM MgSO4, 500 μM MgCl2), and then 100 μl of ROS detection reagent CM-H2DCFDA (commercialized by FUJIFILM Wako Pure Chemical Corporation, Tokyo, Japan) adjusted to 5 μM with the same buffer, was added to each well. The PC12-HS cells were cultured at 37° C. for 30 minutes to allow the cells to take up CM-H2DCFDA, and then, the solution containing CM-H2DCFDA was removed. Then, the cells were washed with Hank's buffer, and then added 50 μM of hydrogen peroxide (commercialized by FUJIFILM Wako Pure Chemical Corporation, Tokyo, Japan) diluted with Hank's buffer in a volume 100 μl/well and stimulated at 37° C. for 2 hours. The solution containing hydrogen peroxide was removed, then an 200 μl of Hank's buffer was added to each well, and the cells were measured for fluorescent intensity at a wavelength of 492-527 nm, which is an index of intracellular ROS production, by a fluorescence microplate reader. In addition, after measuring the fluorescence intensity, the cells were fixed by adding 20 μl of glutaraldehyde to each well, and the amount of methylene blue dye uptake was measured as an absorbance at 650 nm, according to a conventional method, the result was used as an index of the number of living cells. The amount of ROS production per cell was indicated by the value that fluorescence intensity (492-527 nm) was divided by the absorbance at 650 nm in each well. The amount of ROS production per cell calculated from cells to which only hydrogen peroxide was added without containing the test compound as a negative control, was set as 100%, and the relative value when the test compound was added was determined, and is shown in Table 3, as the ROS production rate (%) per cell of each well. Measurements were performed for each concentration of each test compound in triplicate, and the mean values were described.

| Compound | Neurite-outgrowth rate (%) (PC12-HS cells [1]; 1.000 nM) | Neurite-outgrowth rate (%) (PC12-HS cells [1]; 200 nM) | Action on PC12-HS neurite-outgrowth promotion (500 ng/ml) (PC12-HS cells [1]) | neurite-outgrowth promoting activity (in words) (PC12-HS cells [1]) | intercellular ROS production (%) (PC12-HS cells [2]; 125 nM) | intercellular ROS production (%) (PC12-HS cells [2]; 250 nM) | intercellular ROS production (%) (PC12-HS cells [2]; 500 nM) | intercellular ROS production (%) (PC12-HS cells [2]; 1,000 nM) | inhibitory effect on intercellular ROS production (in words) (PC12-HS cells [2]) |
| --- | --- | --- | --- | --- | --- | --- | --- | --- | --- |
| CCN1C=CC(=Cc2cc[n+](CC)c3ccccc23)c2ccccc21.[I-] [NK-6] | 41.5 | 32.6 | ⊚ (45% or more was judged to be more potent than NK-4 (“double circle”)) | stronger neurite-outgrowth promoting activity than NK-4 | 108.6 | 81.2 | 69.8 | 66.2 | suppressed the intercellular ROS production induced by hydrogen peroxide stimulation, in a concentration-dependent manner |
| CCN1C=CC(=CC=Cc2cc[n+](CC)c3ccccc23)c2ccccc21.[Br-] [NK-36] | 28.7 | 33.8 | ◯ (When the mean neurite-outgrowth rate was 25 to 44%, it was judged to be equivalent to the positive control NK-4 (“circle”)) | almost equivalent neurite-outgrowth promoting rate to NK-4 | 88 | 43.5 | 51 | 8.3 | suppressed the intercellular ROS production induced by hydrogen peroxide stimulation, in a concentration-dependent manner |
| CCCCN1C=CC(=CC=Cc2cc[n+](CCCC)c3ccccc23)c2ccccc21.[I-] [NK-44] | 22.9 | 29.3 | ◯ (When the mean neurite-outgrowth rate was 25 to 44%, it was judged to be equivalent to the positive control NK-4 (“circle”)) | almost equivalent neurite-outgrowth promoting rate to NK-4 | 75.4 | 65.11 | 34.1 | 27.1 | suppressed the intercellular ROS production induced by hydrogen peroxide stimulation, in a concentration-dependent manner |
